Source: patent US8921555B2, “Substituted-1,3,8-triazaspiro[4.5]decane-2,4-diones” (Merck Sharp & Dohme Corp., priority 2009, dated 2014)

biological target: T1, HIF-PHD2 (Homo sapiens, UniProt Q9GZT9); test: Assay for HIF-PHD2 Catalytic Activity (PHD2 Binding Activity); assay type: biochemical; conditions: not given
T1 construct: FLAG-tagged full length PHD2 expressed in and purified from baculovirus-infected Sf9 cells; FLAG; made in house; host or cells: baculovirus-infected Sf9 cells
T1 sequence (Q9GZT9 whole entry): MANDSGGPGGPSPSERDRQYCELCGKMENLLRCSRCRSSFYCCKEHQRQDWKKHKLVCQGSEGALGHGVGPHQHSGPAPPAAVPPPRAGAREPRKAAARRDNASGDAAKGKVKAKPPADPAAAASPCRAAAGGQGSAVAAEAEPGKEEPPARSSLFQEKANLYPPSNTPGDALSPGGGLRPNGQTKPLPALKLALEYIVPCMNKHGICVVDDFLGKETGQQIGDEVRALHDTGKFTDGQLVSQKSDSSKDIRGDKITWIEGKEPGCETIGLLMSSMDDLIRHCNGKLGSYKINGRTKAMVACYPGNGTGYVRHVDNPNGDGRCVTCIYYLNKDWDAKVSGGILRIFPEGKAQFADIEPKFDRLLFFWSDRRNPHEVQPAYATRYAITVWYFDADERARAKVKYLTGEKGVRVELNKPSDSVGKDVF

SMILES | IC50
CCOC(=O)C1CN(Cc2ncccc2C)CCC12C(=O)N(c1ccc(-c3ccccc3)cc1)C(=O)N2c1cc(O)ncn1 (stereo not shown) [Compound 3-6, Ethyl 3-biphenyl-4-yl-1-(6-hydroxypyrimidin-4-yl)-8-[(3-methylpyridin-2-yl)methyl]-2,4-dioxo-1,3,8-triazaspiro[4.5]decane-6-carboxylate] | 0.5 to 20 nM
O=C(O)c1[nH]cnc1CN1CCC2(CC1)C(=O)N(c1ccc(-c3ccccc3)cc1)C(=O)N2c1cc(O)ncn1 [Compound 1-52, 4-{[3-biphenyl-4-yl-1-(6-hydroxypyrimidin-4-yl)-2,4-dioxo-1,3,8-triazaspiro[4.5]dec-8-yl]methyl}-1-H-imidazole-5-carboxylic acid] | 0.5 to 20 nM
Cc1cccnc1CN1CCC2(CC1)C(=O)N(c1ccc(-c3ccccc3)cc1)C(=O)N2c1cccnc1 [Compound 1-18, 3-biphenyl-4-yl-8-[(3-methylpyridin-2-yl)methyl]-1-pyridin-3-yl-1,3,8-triazaspiro[4.5]decane-2,4-dione] | 0.5 to 20 nM
Cc1cccnc1CN1CCC2(CC1)C(=O)N(c1ccc(-c3ccccc3)cc1)C(=O)N2c1ccccc1 [Compound 1-4, 3-biphenyl-4-yl-8-[(3-methylpyridin-2-yl)methyl]-1-phenyl-1,3,8-triazaspiro[4.5]decane-2,4-dione] | 0.5 to 20 nM
Cc1cccnc1CN1CCC2(CC1)C(=O)N(c1ccc(-c3ccccc3)cc1)C(=O)N2c1ncc(O)cn1 [Compound 1-10, 3-biphenyl-4-yl-1-(5-hydroxypyrimidin-2-yl)-8-[(3-methylpyridin-2-yl)methyl]-1,3,8-triazaspiro[4.5]decane-2,4-dione] | 0.5 to 20 nM
COc1ccnc(N2C(=O)N(c3ccc(-c4ccccc4)cc3)C(=O)C23CCN(Cc2ncccc2Br)CC3)n1 [Compound 1-28, 3-biphenyl-4-yl-8-[(3-bromopyridin-2-yl)methyl]-1-(4-methoxypyrimidin-2-yl)-1,3,8-triazaspiro[4.5]decane-2,4-dione] | 20 to 50 nM
Cc1cccnc1CN1CCC2(CC1)C(=O)N(c1ccc(-c3ccccc3)cc1)C(=O)N2c1cc(C(=O)O)ccn1 [Compound 1-5, 2-{3-biphenyl-4-yl-8-[(3-methylpyridin-2-yl)methyl]-2,4-dioxo-1,3,8-triazaspiro[4.5]dec-1-yl}isonicotinic acid] | 0.5 to 20 nM
O=C(O)Cn1ccnc1CN1CCC2(CC1)C(=O)N(c1ccc(-c3ccccc3)cc1)C(=O)N2c1nccc(O)n1 [Compound 1-23, (2-{[3-biphenyl-4-yl-1-(4-hydroxypyrimidin-2-yl)-2,4-dioxo-1,3,8-triazaspiro[4.5]dec-8-yl]methyl}-1H-imidazol-1-yl)acetic acid] | 0.5 to 20 nM
COc1ccnc(N2C(=O)N(c3ccc(-c4ccc(C(=O)O)cc4C)nc3)C(=O)C23CCN(Cc2ncccc2C)CC3)n1 [Compound 11-2, 4-(5-{1-(4-methoxypyrimidin-2-yl)-8-[(3-methylpyridin-2-yl)methyl]-2,4-dioxo-1,3,8-triazaspiro[4.5]dec-3-yl}-pyridin-2-yl)-3-methylbenzoic acid] | 0.5 to 20 nM
COc1ccnc(N2C(=O)N(c3ccc(-c4ccccc4)cc3)C(=O)C23CCN(Cc2nccn2CCC(=O)O)CC3)n1 [Compound 1-22, 3-(2-{[3-biphenyl-4-yl-1-(4-methoxypyrimidin-2-yl)-2,4-dioxo-1,3,8-triazaspiro[4.5]dec-8-yl]methyl}-1H-imidazol-1-yl)propanoic acid] | 0.5 to 20 nM
O=C(O)c1[nH]cnc1CN1CCC2(CC1)C(=O)N(c1ccc(-c3ccccc3)cc1)C(=O)N2c1nccc(O)n1 [Compound 1-50] | 20 to 50 nM
CCOC(=O)C1CN(Cc2ncccc2C)CCC12C(=O)N(c1ccc(-c3ccccc3)cc1)C(=O)N2c1nccc(OC)n1 (stereo not shown) [Compound 3-2, ethyl 3-biphenyl-4-yl-1-(4-methoxypyrimidin-2-yl)-8-[(3-methylpyridin-2-yl)methyl]-2,4-dioxo-1,3,8-triazaspiro[4.5]decane-6-carboxylate] | 0.5 to 20 nM
COc1ccnc(N2C(=O)N(c3ccc(-c4nnn[nH]4)cc3)C(=O)C23CCN(Cc2ncccc2C)CC3)n1 [Compound 1-15, 1-(4-methoxypyrimidin-2-yl)-8-[(3-methylpyridin-2-yl)methyl]-3-[4-(1H-tetrazol-5-yl)phenyl]-1,3,8-triazaspiro[4.5]decane-2,4-dione] | 20 to 50 nM
O=C1N(c2ccc(-c3ccccc3)cc2)C(=O)C2(CCN(Cc3ncccc3Br)CC2)N1c1nccc(O)n1 [Compound 1-31, 3-biphenyl-4-yl-8-[(3-bromopyridin-2-yl)methyl]-1-(4-hydroxypyrimidin-2-yl)-1,3,8-triazaspiro[4.5]decane-2,4-dione] | > 50 nM
Cc1cccnc1CN1CCC2(CC1)C(=O)N(c1ccc(C3CC3C(=O)O)cc1)C(=O)N2c1ncccn1 (stereo not shown) [Compound 1-69, 2-(4-{8-[(3-methylpyridin-2-yl)methyl]-2,4-dioxo-1-pyrimidin-2-yl-1,3,8-triazaspiro[4.5]dec-3-yl}phenyl)cyclopropanecarboxylic acid] | 0.5 to 20 nM
Cc1cncc(N2C(=O)N(c3ccc(-c4ccc(C(=O)O)cc4)cc3)C(=O)C23CCN(Cc2ncccc2C)CC3)n1 [Compound 7-7, 4′-{1-(6-methylpyrazin-2-yl)-8-[(3-methylpyridin-2-yl)methyl]-2,4-dioxo-1,3,8-triazaspiro[4.5]dec-3-yl}biphenyl-4-carboxylic acid] | 0.5 to 20 nM
O=C(O)CCn1ccnc1CN1CCC2(CC1)C(=O)N(c1ccc(-c3ccccc3)cc1)C(=O)N2c1nccc(O)n1 [Compound 1-24, 3-(2-{[3-biphenyl-4-yl-1-(4-hydroxypyrimidin-2-yl)-2,4-dioxo-1,3,8-triazaspiro[4.5]dec-8-yl]methyl}-1H-imidazol-1-yl)propanoic acid] | 0.5 to 20 nM
CCOC(=O)C1CN(Cc2ncccc2C)CCC12C(=O)N(c1ccc(-c3ccccc3)cc1)C(=O)N2c1cc(O)ncn1 (single isomer, unassigned) [Compound 3-10, Ethyl 3-biphenyl-4-yl-1-(6-hydroxypyrimidin-4-yl)-8-[(3-methylpyridin-2-yl)methyl]-2,4-dioxo-1,3,8-triazaspiro[4.5]decane-6-carboxylate] | 0.5 to 20 nM
Cc1cccnc1CN1CCC2(CC1)C(=O)N(c1ccc(-c3ccccc3)cc1)C(=O)N2c1cccc(F)n1 [Compound 1-6, 3-biphenyl-4-yl-1-(6-fluoropyridin-2-yl)-8-[(3-methylpyridin-2-yl)methyl]-1,3,8-triazaspiro[4.5]decane-2,4-dione] | 0.5 to 20 nM
COc1cccc(N2C(=O)N(c3ccc(-c4ccccc4)cc3)C(=O)C23CCN(Cc2ncccc2C)CC3)n1 [Compound 1-11, 3-biphenyl-4-yl-1-(6-methoxypyridin-2-yl)-8-[(3-methylpyridin-2-yl)methyl]-1,3,8-triazaspiro[4.5]decane-2,4-dione] | 0.5 to 20 nM
Cc1cccnc1CN1CCC2(CC1)C(=O)N(c1ccc(-c3ccccc3)cc1)C(=O)N2c1ccnc(O)c1 [Compound 1-58, 3-biphenyl-4-yl-1-(2-hydroxypyridin-4-yl)-8-[(3-methylpyridin-2-yl)methyl]-1,3,8-triazaspiro[4.5]decane-2,4-dione] | 0.5 to 20 nM
COc1ccnc(N2C(=O)N(c3ccc(C#N)cc3)C(=O)C23CCN(Cc2ncccc2C)CC3)n1 [Compound 1-25, 4-{1-(4-methoxypyrimidin-2-yl)-8-[(3-methylpyridin-2-yl)methyl]-2,4-dioxo-1,3,8-triazaspiro[4.5]dec-3-yl}benzonitrile] | > 50 nM
COc1cc(N2C(=O)N(c3ccc(-c4ccc(C(=O)O)cc4F)nc3)C(=O)C23CCN(Cc2ncccc2C)CC3)ncn1 [Compound 12-1, 3-fluoro-4-(5-{1-(6-methoxypyrimidine-4-yl)-8-[(3-methylpyridin-2-yl)methyl]-2,4-dioxo-1,3,8-triazaspiro[4.5]dec-3-yl}pyridin-2-yl)-3-benzoic acid] | 0.5 to 20 nM
COc1cc(N2C(=O)N(c3ccc(-c4ccc(C5CC(=O)NN5)cc4)cc3)C(=O)C23CCN(Cc2ncccc2C)CC3)ncn1 (stereo not shown) [Compound 7-13, 1-(6-methoxypyrimidin-4-yl)-8-[(3-methylpyridin-2-yl)methyl]-3-[4′-(5-oxopyrazolidin-3-yl)biphenyl-4-yl]-1,3,8-triazaspiro[4.5] decane-2,4-dione] | 0.5 to 20 nM

same assay, conditions: read-out: PHD2 Binding Activity IC50

SMILES | IC50
Cc1cccnc1CN1CCC2(CC1)C(=O)N(c1ccc(-c3ccccc3)cc1)C(=O)N2CC(=O)O [Compound 2-7] | 0.5 to 20 nM
Cc1cccnc1CN1CCC2(CC1)C(=O)N(c1ccc(-c3ccccc3)cc1)C(=O)N2C(=O)N[C@@H](C)C(=O)O [Compound 5-5, (2S)-2-[({3-biphenyl-4-yl-8-[(3-methylpyridin-2-yl)methyl]-2,4-dioxo-1,3,8-triazaspiro[4.5]dec-1-yl}carbonyl)amino]propanoic acid] | 0.5 to 20 nM
Cc1cccnc1CN1CCC2(CC1)C(=O)N(c1ccc(-c3ccccc3)cc1)C(=O)N2c1cccs1 [Compound 1-27, 3-biphenyl-4-yl-8-[(3-methylpyridin-2-yl)methyl]-1-(2-thienyl)-1,3,8-triazaspiro[4.5]decane-2,4-dione] | 0.5 to 20 nM
Cc1cccnc1CN1CCC2(CC1)C(=O)N(c1ccc(-c3ccccc3)cc1)C(=O)N2C(=O)NC(C)(C)C(=O)O [Compound 5-3, 2-[({3-biphenyl-4-yl-8-[(3-methylpyridin-2-yl)methyl]-2,4-dioxo-1,3,8-triazaspiro[4.5]dec-1-yl}carbonyl)amino]-2-methylpropanoic acid] | 0.5 to 20 nM
O=C(O)CN1CCC2(CC1)NC(=O)N(c1ccc(-c3ccccc3)cc1)C2=O [Compound 4-1, (3-biphenyl-4-yl-2,4-dioxo-1,3,8-triazaspiro[4.5]dec-8-yl)acetic acid] | > 50 nM
O=C(O)c1[nH]cnc1CN1CCC2(CC1)NC(=O)N(c1ccc(-c3ccccc3)cc1)C2=O [Compound 1-51, 4-[(3-biphenyl-4-yl-2,4-dioxo-1,3,8-triazaspiro[4.5]dec-8-yl)methyl]-1-H-imidazole-5-carboxylic acid] | 0.5 to 20 nM
Cc1cccnc1CN1CCC2(CC1)C(=O)N(c1ccc(-c3ccccc3)cc1)C(=O)N2C(=O)N[C@H](C)C(=O)O [Compound 5-4, (2R)-2-[({3-biphenyl-4-yl-8-[(3-methylpyridin-2-yl)methyl]-2,4-dioxo-1,3,8-triazaspiro[4.5]dec-1-yl}carbonyl)amino]propanoic acid] | 0.5 to 20 nM
